Assay results taken from patent US8057790B2, “Treatment of malodour” (Blis Technologies Limited, priority 2003, dated 2011).
Several values for one entry are separate records, joined by “and”; a condition that tells them apart may be missing. Equal entries are not always repeated.

Columns and labels:
[1] = tested on: halitosis subjects; test: Volatile sulphur compound (VSC) breath readings by halimeter in halitosis subjects; assay type: in vivo, human; conditions: three recalled subjects
Source text: Sixty-five subjects were screened for volatile sulphur compound (VSC) breath readings by halimeter (Interscan Corp., Chatsworth, Calif.). VSC readings in persons with normal breath are typically in the range of 80-150 ppb. At levels of 200-300 ppb oral malodor is noticeable by an observer standing close to the patient. At 350-400 ppb, the odour is noticeable by an observer standing several feet away from the patient. Those subjects with breath scores of greater than 200 ppb on two separate visits were recruited for the study (n=13). Each signed an Informed Consent under a protocol approved by the Otago Ethics Committee. Subject's upon their second positive visit undertook a mechanical and chemical treatment of their mouths at the laboratory. This consisted of teeth and tongue brushing (2 minutes with Colgate Total™ [0.3% w/v triclosan], Colgate-Palmolive, N.Y., USA), tongue scraping for 30 seconds, brushing teeth and tongue with a CHX gel (Colgate, Australia) (Perioguard 2.0% CHX mouth gel, 2 minutes) and followed by a 30 second CHX rinse (0.2% CHX, 10% ethanol alcohol). This was followed at intervals by the sucking of a lozenge (BLIS Technologies Limited, Wellington, New Zealand) (commencing 2 hours after treatment and typically 2 hours apart, 4 times daily), each containing>1×10^9 colony forming units of streptomycin-resistant S. salivarius K12. […]

[2] = tested on: halitosis subjects; test: Organoleptic assessment of subjects' saliva; assay type: in vivo, human; conditions: three recalled subjects; 3-day CHX regimen only; seventh day; scale of 0-5
Source text: Sixty-five subjects were screened for volatile sulphur compound (VSC) breath readings by halimeter (Interscan Corp., Chatsworth, Calif.). VSC readings in persons with normal breath are typically in the range of 80-150 ppb. At levels of 200-300 ppb oral malodor is noticeable by an observer standing close to the patient. At 350-400 ppb, the odour is noticeable by an observer standing several feet away from the patient. Those subjects with breath scores of greater than 200 ppb on two separate visits were recruited for the study (n=13). Each signed an Informed Consent under a protocol approved by the Otago Ethics Committee. Subject's upon their second positive visit undertook a mechanical and chemical treatment of their mouths at the laboratory. […]
Fresh saliva samples and tongue swabs were tested for N-benzoyl-DL-arginine-2-naphthylamide (BANA) hydrolysis (BANAMet ILC, Ann Arbor, Mich.), since positive scores by the BANA test have previously been associated with the presence of malodour-forming enzyme activities of certain oral bacterial species (1, 3). […] The samples were graded according to the same criteria used to assess breath air of halitosis sufferers (7), using a scale of 0-5, with 0 equating to no odour detected and 5 the most severe.

[H]/N=C(\N/C(=N/[H])NCCCCCCNC(=N)NC(=N)Nc1ccc(Cl)cc1)Nc1ccc(Cl)cc1 [CHX, chlorhexidine]
change in VSC, organoleptic or BANA readings after treatment with CHX only [1]: no decrease
Post CHX treatment Saliva organoleptic [2]: 2 and 3
